Assay results: patent publication US20260176320A1, “MODULATORS OF G-PROTEIN COUPLED RECEPTORS” (priority 2018, published 2026)
Read-outs that look alike come from different tables or passages of the source.

What was measured:
Assay type in all cases: cell-based
GLP-1R [1] = biological target: T1, GLP-1R (Homo sapiens, UniProt P43220); test: HitHunter cAMP assay (GLP-1R); conditions: cAMP; for Emax: read-out: (Emax) GLP-1R
Summary of the method: (§1)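 Luminescent readout of cAMP by enzyme-fragment immunocompetition gave agonist concentration-response data. Cells (10,000/well) sat in HBSS buffer containing IBMX 625 μM, HEPES 10 mM and BSA 0.2%, exposed to agonist for 30 min at room temperature.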

GLP-1R [2] = biological target: T1, GLP-1R; test: PathHunter β-arrestin assay
Summary of the method: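 Overnight-plated cells; 0.2% BSA medium; agonist 22-pt 2× dilution series, duplicate; 90 min, 37 °C/5% CO2; detection reagent 3 h RT, dark; luminescence.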

GIP-R = biological target: T2, GIP-R (Homo sapiens, UniProt P48546); test: HitHunter cAMP assay (GIP-R); conditions: cAMP; for Emax: read-out: (Emax) GIP-R
T2 sequence (P48546 22-466): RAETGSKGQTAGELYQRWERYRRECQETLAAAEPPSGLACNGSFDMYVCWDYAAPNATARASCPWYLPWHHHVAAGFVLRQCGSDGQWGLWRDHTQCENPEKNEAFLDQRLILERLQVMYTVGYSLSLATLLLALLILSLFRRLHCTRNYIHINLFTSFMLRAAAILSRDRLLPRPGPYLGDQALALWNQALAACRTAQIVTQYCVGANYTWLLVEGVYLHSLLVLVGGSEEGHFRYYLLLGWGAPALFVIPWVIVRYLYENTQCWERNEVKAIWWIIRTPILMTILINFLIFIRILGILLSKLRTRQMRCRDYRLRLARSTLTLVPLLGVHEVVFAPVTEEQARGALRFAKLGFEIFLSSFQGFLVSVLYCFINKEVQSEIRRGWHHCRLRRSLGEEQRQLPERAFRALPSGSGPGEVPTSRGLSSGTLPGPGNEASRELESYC
Summary of the method: as §1

T1 sequence (P43220 24-463): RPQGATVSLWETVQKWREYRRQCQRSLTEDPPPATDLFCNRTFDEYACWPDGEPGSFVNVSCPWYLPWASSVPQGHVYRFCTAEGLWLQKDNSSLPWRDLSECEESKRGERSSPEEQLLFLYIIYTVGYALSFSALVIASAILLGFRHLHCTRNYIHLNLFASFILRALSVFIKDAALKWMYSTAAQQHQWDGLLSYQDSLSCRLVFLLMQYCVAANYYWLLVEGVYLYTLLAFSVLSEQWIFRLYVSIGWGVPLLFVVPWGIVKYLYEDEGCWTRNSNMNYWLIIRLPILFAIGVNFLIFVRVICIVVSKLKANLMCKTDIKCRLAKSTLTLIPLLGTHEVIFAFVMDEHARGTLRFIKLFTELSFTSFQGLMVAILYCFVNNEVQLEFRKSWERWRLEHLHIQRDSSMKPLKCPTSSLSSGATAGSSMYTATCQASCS

Compound | Emax (GLP-1R [1]; Table 3) [%] | Emax (GLP-1R [1]; Table 3A) [%] | EC50 (GLP-1R [1]; read-out: EC50 GLP-1R/nM, Table 3) [nM] | EC50 (GLP-1R [1]; read-out: EC50 GLP-1R/nM, Table 3A) [nM] | EC50 (GLP-1R [2]) [nM] | Emax (GIP-R; Table 3) [%] | Emax (GIP-R; Table 3A) [%] | EC50 (GIP-R; read-out: EC50 GIP-R/nM, Table 3) [nM] | EC50 (GIP-R; read-out: EC50 GIP-R/nM, Table 3A) [nM] | EC50 (GLP-1R [1]; EC50 GLP-1R/nM, Table 3) [nM] | EC50 (GLP-1R [1]; EC50 GLP-1R/nM, Table 3A) [nM] | EC50 (GIP-R; EC50 GIP-R/nM, Table 3) [nM] | EC50 (GIP-R; EC50 GIP-R/nM, Table 3A) [nM]
CC[C@H](C)[C@H](NC(=O)[C@H](CO)NC(=O)[C@H](Cc1ccc(O)cc1)NC(=O)[C@H](CC(=O)O)NC(=O)[C@H](CO)NC(=O)[C@@H](NC(=O)[C@H](Cc1ccccc1)NC(=O)[C@@H](NC(=O)CNC(=O)[C@H](CCC(=O)O)NC(=O)CSCC(=O)NCCN1C(=O)c2ccncc2C1=O)[C@@H](C)O)[C@@H](C)O)C(=O)N[C@@H](Cc1ccc(O)cc1)C(=O)N[C@@H](CC(C)C)C(=O)N[C@@H](CC(=O)O)C(=O)N[C@@H](CCCCN)C(=O)N[C@@H](CCC(N)=O)C(=O)N[C@@H](C)C(=O)N[C@@H](C)C(=O)NC(C)(C)C(=O)N[C@@H](CCC(=O)O)C(=O)N[C@@H](Cc1ccccc1)C(=O)N[C@H](C(=O)N[C@@H](CC(N)=O)C(=O)N[C@@H](Cc1c[nH]c2ccccc12)C(=O)N[C@@H](CC(C)C)C(=O)N[C@@H](CC(C)C)C(=O)N[C@@H](C)C(=O)NCC(=O)NCC(=O)N1CCC[C@H]1C(=O)N[C@@H](CO)C(=O)N[C@@H](CO)C(=O)NCC(=O)N[C@@H](C)C(=O)N1CCC[C@H]1C(=O)N1CCC[C@H]1C(=O)N1CCC[C@H]1C(=O)N[C@@H](CO)C(=O)N[C@@H](CCCCN)C(N)=O)C(C)C [Compound 157] | 93 to 95 | 93 to 95 | 1 to 100 | 1 to 100 | > 1000 | 103 to 105 | 103 to 105 | 0.1 to 10 | 0.1 to 10 |  |  |  | 
CCCCCCCCCCCCCCCC(=O)N[C@@H](CCC(=O)NCCCC[C@H](NC(=O)[C@H](CO)NC(=O)[C@@H]1CCCN1C(=O)[C@@H]1CCCN1C(=O)[C@@H]1CCCN1C(=O)[C@H](C)NC(=O)CNC(=O)[C@H](CO)NC(=O)[C@H](CO)NC(=O)[C@@H]1CCCN1C(=O)CNC(=O)CNC(=O)[C@H](C)NC(=O)[C@H](CC(C)C)NC(=O)[C@H](CC(C)C)NC(=O)[C@H](Cc1c[nH]c2ccccc12)NC(=O)[C@H](CC(N)=O)NC(=O)[C@@H](NC(=O)[C@H](Cc1ccccc1)NC(=O)[C@H](CCC(=O)O)NC(=O)C(C)(C)NC(=O)[C@H](C)NC(=O)[C@H](C)NC(=O)[C@H](CCC(N)=O)NC(=O)[C@H](CCCCN)NC(=O)[C@H](CC(=O)O)NC(=O)[C@H](CC(C)C)NC(=O)[C@H](Cc1ccc(O)cc1)NC(=O)[C@@H](NC(=O)[C@H](CO)NC(=O)[C@H](Cc1ccc(O)cc1)NC(=O)[C@H](CC(=O)O)NC(=O)[C@H](CO)NC(=O)[C@@H](NC(=O)[C@H](Cc1ccccc1)NC(=O)[C@@H](NC(=O)CNC(=O)[C@H](CCC(=O)O)NC(=O)CSCC(=O)NCCN1CCCC(C)(C)C1=O)[C@@H](C)O)[C@@H](C)O)[C@@H](C)CC)C(C)C)C(N)=O)C(=O)O [Compound 10] | 95 | 95 |  |  | > 1000 | 32 | 32 |  |  | 0.1 to 1 | 0.1 to 1 | 1 to 10 | 1 to 10
